What was measured:
XMD8-85 + Luminespib = compound: CN1CCN(CC1)C2=CC(=C(C=C2)NC3=NC=C4C(=N3)N(C5=CC=CC=C5C(=O)N4C)C)OC [XMD8-85] + CCNC(=O)c1noc(-c2cc(C(C)C)c(O)cc2O)c1-c1ccc(CN2CCOCC2)cc1 [Luminespib] (partner 0.01 µM); assay: relative viability (nuclei count vs DMSO), 5 days (fraction); higher = more cells survive
Method in brief: (§1)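 Lung cancer cell lines were seeded in 1536-well plates and dosed by pin tool the next day, with either a single drug or a fixed anchor-drug dose combined with five library-drug doses (not always all listed) spaced in √10 steps. Five days later, one step fixed the cells and stained their nuclei (final 0.05% Triton X-100, 1% formaldehyde, 1 ug/ml Hoechst), and nuclei were counted on 4× images. Relative viability is the nuclei count in treated wells divided by the count in vehicle wells, and each value is the median of duplicate plates.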

XMD8-85 + Dasatinib = compound: CN1CCN(CC1)C2=CC(=C(C=C2)NC3=NC=C4C(=N3)N(C5=CC=CC=C5C(=O)N4C)C)OC [XMD8-85] + Cc1nc(Nc2ncc(C(=O)Nc3c(C)cccc3Cl)s2)cc(N2CCN(CCO)CC2)n1 [Dasatinib] (partner 0.075 µM); assay: as above
Method in brief: as §1

Cell Line | relative viability (XMD8-85 + Luminespib; first compound 0.08 µM) | relative viability (XMD8-85 + Luminespib; first compound 0.253 µM) | relative viability (XMD8-85 + Luminespib; first compound 0.8 µM) | relative viability (XMD8-85 + Luminespib; first compound 2.53 µM) | relative viability (XMD8-85 + Luminespib; first compound 8 µM) | relative viability (XMD8-85 + Dasatinib; first compound 0.08 µM) | relative viability (XMD8-85 + Dasatinib; first compound 0.253 µM) | relative viability (XMD8-85 + Dasatinib; first compound 0.8 µM) | relative viability (XMD8-85 + Dasatinib; first compound 2.53 µM) | relative viability (XMD8-85 + Dasatinib; first compound 8 µM)
NCI-H358 | 0.303 | 0.172 | 0.376 | 0.339 | 0.239 | 0.167 | 0.173 | 0.169 | 0.207 | 0.18
NCI-H441 | 0.299 | 0.333 | 0.4 | 0.356 | 0.231 | 0.42 | 0.576 | 0.728 | 0.715 | 0.516
NCI-H460 | 0.0362 | 0.0282 | 0.0359 | 0.0262 | 0.0291 | 0.423 | 0.443 | 0.554 | 0.475 | 0.178
NCI-H520 | 0.235 | 0.257 | 0.192 | 0.202 | 0.201 | 0.199 | 0.208 | 0.182 | 0.216 | 0.159
NCI-H522 | 1.15 | 1.31 | 0.92 | 1.06 | 0.97 | 0.858 | 0.867 | 0.818 | 0.944 | 0.909
NCI-H596 | 0.885 | 1.02 |  | 0.875 | 0.605 | 0.599 | 0.541 | 0.553 | 0.556 | 0.545
NCI-H647 | 0.151 | 0.208 | 0.169 | 0.126 | 0.132 | 0.197 | 0.141 | 0.16 | 0.196 | 0.122
NCI-H650 | 0.892 | 0.862 | 0.773 | 0.82 | 0.639 | 0.446 | 0.51 | 0.437 | 0.418 | 0.304
NCI-H661 | 1.06 | 0.952 | 1.01 | 1.04 | 0.806 | 0.81 | 0.888 | 0.856 | 0.834 | 0.455
NCI-H727 | 0.431 | 0.527 | 0.359 | 0.322 | 0.344 | 0.295 | 0.416 | 0.442 | 0.344 | 0.353
NCI-H838 | 0.234 | 0.225 | 0.29 | 0.389 | 0.189 | 0.397 | 0.277 | 0.281 | 0.28 | 0.191
NCI-H1355 | 0.528 | 0.747 | 0.697 | 0.642 | 0.6 | 0.671 | 0.753 | 0.653 | 0.819 | 
NCI-H1395 | 0.784 | 0.603 | 0.731 | 0.684 | 0.482 | 0.438 | 0.414 | 0.42 | 0.428 | 0.309
NCI-H1437 | 1.15 | 1.19 | 1.15 | 1.07 | 0.813 | 0.372 | 0.364 | 0.398 | 0.394 | 0.282
NCI-H1563 | 0.608 | 0.488 | 0.505 | 0.536 | 0.567 | 0.493 | 0.431 | 0.448 | 0.465 | 0.412
NCI-H1623 | 0.489 | 0.418 | 0.58 | 0.42 | 0.489 | 0.533 | 0.571 | 0.533 | 0.56 | 0.444
NCI-H1650 | 0.203 | 0.216 | 0.199 | 0.173 | 0.173 | 0.34 | 0.313 | 0.365 | 0.271 | 0.192
NCI-H1651 | 0.785 | 1.08 | 0.774 | 0.667 | 0.46 | 0.46 | 0.334 | 0.511 | 0.387 | 0.307
NCI-H1666 | 1 | 1.03 | 0.986 | 1.04 | 0.877 | 0.822 | 0.827 | 0.808 | 0.773 | 0.701
NCI-H1734 | 0.176 | 0.173 | 0.213 | 0.205 | 0.151 | 0.463 | 0.491 | 0.453 | 0.574 | 0.499
NCI-H1755 | 0.672 | 0.414 | 0.344 | 0.482 | 0.342 | 0.409 | 0.432 | 0.434 | 0.482 | 0.353
NCI-H1793 | 0.144 | 0.182 | 0.146 | 0.201 | 0.23 | 0.384 | 0.403 | 0.404 | 0.413 | 0.338
NCI-H1915 | 0.807 | 0.764 | 0.49 | 0.47 | 0.448 | 0.328 | 0.339 | 0.348 | 0.326 | 0.32
NCI-H1944 | 0.658 | 0.838 | 0.751 | 0.491 | 0.507 | 0.203 | 0.228 | 0.204 | 0.223 | 0.203
NCI-H1975 | 0.398 | 0.188 | 0.207 | 0.236 | 0.152 | 0.317 | 0.345 | 0.384 | 0.38 | 0.236
NCI-H1993 | 0.79 | 0.837 | 0.929 | 0.928 | 0.746 | 0.522 | 0.518 | 0.648 | 0.744 | 0.744

Reference: the supplement of paper PMC10307832
